Columns and labels:
women with endometriosis = experiment: Bone mineral density (BMD) of the lumbar spine by DEXA, ratio of 6 month to baseline; assay type: in vivo; settings: deslorelin alone, another study
Method: Women with endometriosis treated with intranasal deslorelin (a GnRH compound) were assigned to one of three methods of estradiol add-back: (1) 50 μg/day estradiol transdermal patch, (2) 300 μg/day intranasal estradiol, or (3) 300 μg/day intranasal estradiol with 275 μg/day intranasal testosterone. Loss of bone mineral density (BMD) is a known side effect of treatment with GnRH compounds. Thus, BMD of the lumbar spine (L1–L4) of the test subjects in Example 4 was obtained bydual-energy X-ray absorptiometry (DEXA) prior to and after six months of treatment. The results are shown in Table 4 as the ratio of BMD at the six month time point (BMD6mo.) to the BMD prior to treatment (BMDbaseline).
Women with endometriosis treated with intranasal deslorelin (GnRH compound) were assigned to one of three methods of add-back: (1) 50 μg/day estradiol transdermal patch, (2) 300 μg/day intranasal estradiol, or (3) 300 μg/day intranasal estradiol with 275 μg/day intranasal testosterone. Bone mineral density (BMD) of the lumbar spine was obtained by dual-energy X-ray absorptiometry (DEXA) prior to and after six months of drug treatment. BMD changes are shown in Table 4 as the ratio of the 6 month value compared to the baseline value.

[1] = cited from earlier work

Structure (SMILES)	Ratio of 6 Month BMD to Baseline BMD, Mean (women with endometriosis)	water solubility (at 25° C., g/100 mL) [1]
CCNC(=O)[C@@H]1CCCN1C(=O)[C@H](CCCN=C(N)N)NC(=O)[C@H](CC(C)C)NC(=O)[C@@H](Cc1c[nH]c2ccccc12)NC(=O)[C@H](Cc1ccc(O)cc1)NC(=O)[C@H](CO)NC(=O)[C@H](Cc1c[nH]c2ccccc12)NC(=O)[C@H](Cc1cnc[nH]1)NC(=O)[C@@H]1CCC(=O)N1 [Deslorelin (D), deslorelin]	0.971	–
OC[C@H]1O[C@@H]2O[C@H]3[C@H](O)[C@@H](O)[C@@H](O[C@H]4[C@H](O)[C@@H](O)[C@@H](O[C@H]5[C@H](O)[C@@H](O)[C@@H](O[C@H]6[C@H](O)[C@@H](O)[C@@H](O[C@H]7[C@H](O)[C@@H](O)[C@@H](O[C@H]8[C@H](O)[C@@H](O)[C@@H](O[C@H]9[C@H](O)[C@@H](O)[C@@H](O[C@H]%10[C@H](O)[C@@H](O)[C@@H](O[C@H]1[C@H](O)[C@H]2O)O[C@@H]%10CO)O[C@@H]9CO)O[C@@H]8CO)O[C@@H]7CO)O[C@@H]6CO)O[C@@H]5CO)O[C@@H]4CO)O[C@@H]3CO [δ-cyclodextrin]	–	8.19 g/100 mL

From patent publication US7029657B2, “Nasal spray steroid formulation and method” (Balance Pharmaceuticals, Inc., priority 2002, dated 2006)
